Test results as given in PubChem BioAssay (NCI).
Where “and” joins values, the source holds several entries; their conditions need not be identical. Equal values may be shown once.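 Method: 48-hour compound exposure of cells in 96-well plates, five concentrations, linear interpolation of endpoints. GI50 = concentration required for 50% inhibition of growth. TGI: concentration producing complete growth inhibition.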

Assays:
Assay in all cases: NCI tumour cell line growth inhibition, 48 h
HS 578T breast = test system: HS 578T breast
MOLT-4 leukemia = test system: MOLT-4 leukemia
CCRF-CEM leukemia = test system: CCRF-CEM leukemia
M14 melanoma = test system: M14 melanoma
HOP-62 NSCLC = test system: HOP-62 NSCLC
TK-10 renal = test system: TK-10 renal
SW-620 colon = test system: SW-620 colon
K-562 leukemia = test system: K-562 leukemia
HCT-116 colon = test system: HCT-116 colon
HCT-15 colon = test system: HCT-15 colon

SMILES	GI50 (HS 578T breast)	TGI (HS 578T breast)	GI50 (MOLT-4 leukemia)	TGI (MOLT-4 leukemia)	GI50 (CCRF-CEM leukemia)	TGI (CCRF-CEM leukemia)	GI50 (M14 melanoma)	TGI (M14 melanoma)	GI50 (HOP-62 NSCLC)	TGI (HOP-62 NSCLC)	GI50 (TK-10 renal)	TGI (TK-10 renal)	GI50 (SW-620 colon)	TGI (SW-620 colon)	GI50 (K-562 leukemia)	TGI (K-562 leukemia)	GI50 (HCT-116 colon)	TGI (HCT-116 colon)	GI50 (HCT-15 colon)	TGI (HCT-15 colon)
CN1CCN(c2ccc(C(=O)Nc3n[nH]c4ccc(Cc5cc(F)cc(F)c5)cc34)c(NC3CCOCC3)c2)CC1	1.23 µM and 1.21 µM	4.37 µM and 3.22 µM	2.18 µM and 1.82 µM	7.18 µM and 4.42 µM	2.93 µM and 2.05 µM	> 10 µM and 5.16 µM	1.58 µM and 1.69 µM	3.2 µM and 3.4 µM	2.66 µM	> 10 µM	2.35 µM and 1.42 µM	> 10 µM and 2.78 µM	1.32 µM and 1.33 µM	3.44 µM and 2.76 µM	1.78 µM and 1.69 µM	4.83 µM and 3.61 µM	1.53 µM and 1.36 µM	3.27 µM and 2.73 µM	1.87 µM and 1.32 µM	6.67 µM and 2.93 µM
C(=Nc1ccccc1)C1CCCC[N-]1.C(=Nc1ccccc1)C1CCCC[N-]1.[Cu+2].[O-][Cl+3]([O-])([O-])O (stereo unspecified)	30.3 µM	> 89.5 µM	4.16 µM	11.7 µM	6.3 µM	36.6 µM	7.4 µM	27.9 µM	15.5 µM	54.6 µM	9.8 µM	32.7 µM	10.4 µM	32.4 µM	0.745 µM	14.4 µM	7.3 µM	28.8 µM	0.529 µM	9.76 µM
CO[C@H](C(=O)[C@@H](O)[C@@H](C)O)[C@@H]1Cc2cc3cc(O[C@H]4C[C@@H](O[C@H]5C[C@@H](O)[C@H](O)C(C)O5)[C@H](O)C(C)O4)c(C)c(O)c3c(O)c2C(=O)[C@H]1O[C@H]1C[C@@H](O[C@H]2C[C@@H](O[C@H]3C[C@@H](OC)[C@H](O)C(C)O3)[C@@H](O)C(C)O2)C(O)(O)C(C)O1 (stereo partly specified)	0.118 µM	> 7.66 µM	0.57 µM	> 25 µM	0.138 µM	> 25 µM	0.275 µM	6.18 µM	0.0513 µM	> 25 µM	0.15 µM	> 24.1 µM	0.164 µM	> 25 µM	0.19 µM	> 25 µM	0.035 µM	> 25 µM	2.65 µM	> 25 µM
Cc1c2cc[nH]c(=O)c2c(C)c2c1[nH]c1cc(OCCN3CCN(C)CC3)ccc12	2.01 µM	9.23 µM	0.456 µM	5.51 µM	1.58 µM	8.99 µM	1.2 µM	2.94 µM	0.469 µM	3.24 µM	2.73 µM	13.7 µM	0.381 µM	2.48 µM	0.949 µM	10.7 µM	0.339 µM	2.09 µM	1.88 µM	12 µM
CCOc1ccc2nc(NC(=O)C(=O)C(C(=O)c3ccccc3-c3ccccc3)C3OC(=O)c4ccccc43)sc2c1 (stereo unspecified)	–	> 100 µM	–	99.6 µM	–	64.2 µM	–	> 67.2 µM	–	99.3 µM	–	41.9 µM	–	60.1 µM	–	> 67 µM	–	33.7 µM	–	> 62.4 µM
Cc1cc(C)nc(NC(N)=NCCc2ccccc2)n1	4.41 µM	54.9 µM	6.01 µM	> 100 µM	5.19 µM	> 100 µM	2.8 µM	24.2 µM	3.16 µM	53.1 µM	17.6 µM	> 100 µM	3.51 µM	> 100 µM	3.56 µM	> 100 µM	2.78 µM	> 100 µM	5.09 µM	> 100 µM
Cc1nc2ccc(CN(C)c3ccc(C(=O)N[C@@H](CCC(=O)O)C(=O)O)s3)cc2c(=O)[nH]1	–	> 100 µM	–	> 100 µM	0.027 µM	> 100 µM	–	> 100 µM	–	> 100 µM	–	> 100 µM	–	> 100 µM	–	> 100 µM	–	> 100 µM	–	> 100 µM
CNC(=O)c1cc(COc2nnc(Nc3ccc(Cl)cc3)c3ccoc23)ccn1	2.41 µM and 4.62 µM	10.9 µM and > 10 µM	22.6 µM and > 10 µM	> 81.3 µM	26.9 µM and > 10 µM	> 79.5 µM	15.7 µM and > 10 µM	54.9 µM and > 10 µM	3.31 µM and 9.48 µM	16 µM and > 10 µM	3.59 µM and 8.84 µM	11.8 µM and > 10 µM	21.1 µM and > 10 µM	56.6 µM and > 10 µM	19.6 µM and > 10 µM	72 µM and > 10 µM	3.32 µM and > 10 µM	11.3 µM and > 10 µM	12.6 µM and > 10 µM	52.4 µM and > 10 µM
O=C(c1ccc2ccccc2c1O)N1CCCCC1	–	> 100 µM	–	59.3 µM	–	> 100 µM	–	> 100 µM	–	> 100 µM	–	> 100 µM	–	> 100 µM	–	75.3 µM	–	> 100 µM	–	> 100 µM
C=CC(=O)Nc1ccc(Nc2nccc(-c3ccc(N4CCCC4)c(C#N)c3)n2)cc1	5.15 µM	> 25 µM	7.43 µM	> 25 µM	13.8 µM	> 25 µM	22.8 µM	> 25 µM	10.9 µM	> 25 µM	10.5 µM	> 25 µM	21.7 µM	> 25 µM	5.94 µM	> 25 µM	6.03 µM	> 25 µM	1.17 µM	10.3 µM
